One experiment addresses T1, Eg5 ATPase (Homo sapiens, UniProt P52732).
T1 construct: purchased Cytoskeleton, Inc BK060
T1 sequence (P52732 1-1056): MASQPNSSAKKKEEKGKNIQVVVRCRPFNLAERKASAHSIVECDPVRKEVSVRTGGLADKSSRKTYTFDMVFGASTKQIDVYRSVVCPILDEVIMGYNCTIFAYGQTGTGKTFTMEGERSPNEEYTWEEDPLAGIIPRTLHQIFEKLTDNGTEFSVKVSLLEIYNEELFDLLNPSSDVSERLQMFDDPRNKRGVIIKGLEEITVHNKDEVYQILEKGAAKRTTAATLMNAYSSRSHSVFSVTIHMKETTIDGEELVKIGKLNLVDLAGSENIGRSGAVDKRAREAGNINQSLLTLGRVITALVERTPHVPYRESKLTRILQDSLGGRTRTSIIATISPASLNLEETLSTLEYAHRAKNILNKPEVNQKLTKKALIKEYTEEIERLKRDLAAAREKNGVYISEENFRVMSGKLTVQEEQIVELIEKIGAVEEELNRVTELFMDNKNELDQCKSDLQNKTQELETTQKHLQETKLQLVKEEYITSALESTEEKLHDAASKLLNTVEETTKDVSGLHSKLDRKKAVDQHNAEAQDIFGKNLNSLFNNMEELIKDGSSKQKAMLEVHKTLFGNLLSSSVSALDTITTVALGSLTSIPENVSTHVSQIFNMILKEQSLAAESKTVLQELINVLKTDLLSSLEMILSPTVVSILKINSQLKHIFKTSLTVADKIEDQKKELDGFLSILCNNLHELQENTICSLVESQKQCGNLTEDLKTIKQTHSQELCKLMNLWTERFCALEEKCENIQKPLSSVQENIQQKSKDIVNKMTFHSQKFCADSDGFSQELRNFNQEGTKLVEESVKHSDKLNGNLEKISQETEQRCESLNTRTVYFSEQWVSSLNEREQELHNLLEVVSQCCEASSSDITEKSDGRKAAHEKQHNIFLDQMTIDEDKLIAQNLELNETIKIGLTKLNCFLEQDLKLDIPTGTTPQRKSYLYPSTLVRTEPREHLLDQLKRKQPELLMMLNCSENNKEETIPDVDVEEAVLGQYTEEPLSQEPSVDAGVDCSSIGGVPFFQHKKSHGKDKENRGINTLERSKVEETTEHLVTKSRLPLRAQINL
Description: Microtubule-activated Eg5 ATPase inhibition assay (Kinesin ELISA kit BK060). It is filed as biochemical. The following applies: for inhibition at 10 µM: mean of 3 replicates. On the procedure: Microtubule (MT)-activated enzymatic Eg5-ATPase activity were measured in order to evaluate the inhibitory activity of the selected compounds at […]. The MT—ATPase activity was analysed using Kinesin ELISA kit (BK060) (Cytoskeleton, Inc) and Monastrol was used as a control. The procedures were applied according to the manufacturer’s instructions. The IC50 of compound 5 which were required for inhibiting 50% of Eg5 ATPase activity was measured using ELISA kit (BK060) (Cytoskeleton, Inc, Denver, CO) according to the manufacturer’s instructions.
The Eg5 ATPase activity of the six hits at 10 µM was investigated in comparison to Monastrol (10 µM), as it acted as a positive control compound. […] Similarly compounds 1, 3 and 4 caused 40, 35 and 30% inhibition activity respectively.
In general terms: ELISA stands for enzyme-linked immunosorbent assay.

A further experiment has as its target Eg5 protein. Also noted: method as in PMID 35251692. The conditions noted are these: read-out: Ki against Eg5 protein; cited from earlier work.
In a further experiment the test system is Hela cells. Description: Immunofluorescence assay, inhibition of mitotic spindle formation. It is filed as cell-based. The following applies: 10 µM, 24 h, tubulin immunofluorescence. On the procedure: […] Monastrol was used as a positive control, while 0.1% DMSO was used as a negative control. The cells were rinsed with PBS, fixed with 3.7% paraformaldehyde, and permeabilized with 0.1% Triton X-100. The cells were blocked with 1% BSA in PBS for 1 h prior to incubation with anti-β-tubulin mouse monoclonal antibody (#86,298, Cell Signaling, San Francisco, CA, USA) overnight at 4 °C. The cells were washed with PBS for 1 h in the dark, and then incubated with Alexa Fluor® 488 secondary antibodies (Abcam).
Further investigation of compound 5 was performed, which consisted of an immunofluorescence assay that was used to analyse the mechanism of compound 5 on the organisation of the microtubules into mitotic spindles during divisions of the cells.

As for `COc1cc2nc(-c3cc(-c4ccccc4Cl)nc4ccccc34)[nH]c2cc1OC` [Compound 3, 2-(2-chlorophenyl)-4-(5,6-dimethoxy-1H-benzo[d]imidazol-2-yl)quinoline], on Eg5 ATPase, the inhibition (usually the change of the read-out against control, counted positive when it falls) at 10 µM was found to be 35%. Compound `CS(=O)(=O)c1ccc(CNc2nc3cc(C(=O)O)ccc3n2Cc2ccccc2C(F)(F)F)cc1` [Compound 6, 1-(2-(trifluoromethyl)benzyl)-2-(4-(methylsulfonyl)benzylamino)-1H-benzo[d]imidazole-5-carboxylic acid] registered an inhibition at 10 µM on Eg5 ATPase of roughly 25%.

Regarding `COc1ccc(CNc2nc3cc(C(=O)O)ccc3n2Cc2ccccc2C(F)(F)F)cc1` [Compound 1, 1-(2-(trifluoromethyl)benzyl)-2-(4-methoxybenzylamino)-1H-benzo[d]imidazole-5-carboxylic acid], testing at 10 µM on Eg5 ATPase gave an inhibition of 40%. As to `O=C1CCc2cc(-c3ccc(C(F)(F)F)cc3)ccc2N1` [GSK-1], the Ki (usually the equilibrium dissociation constant of an inhibitor or competing ligand from its target) on Eg5 protein was 1.8 nM. For the compound `NC(=O)Nc1ccc(-c2ccc(C(F)(F)F)cc2)cc1F` [GSK-2], the Ki on Eg5 protein was 8.8 nM. Regarding `CCOC(=O)C1=C(C)NC(=S)NC1c1cccc(O)c1` (stereo not drawn) [Monastrol, reference compound], the inhibition at 10 µM at Eg5 ATPase was found to be 60%. The Mitotic spindle morphology result in the experiment on Hela cells is “monopolar spindle profiles”. `COc1ccc(C(=O)N2c3ccc(OC(=O)c4ccco4)cc3C(C)=CC2(C)C)cc1` [Compound 2, 1-(4-methoxybenzoyl)-2,2,4-trimethyl-1,2-dihydroquinolin-6-yl furan-2-carboxylate]: the inhibition at 10 µM on Eg5 ATPase is roughly 25%. At Eg5 ATPase, `Cn1c(=O)[nH]c(=O)c2c1nc(NCCCn1ccnc1)n2Cc1ccc2ccccc2c1` [Compound 5, 8-(3-(1H-imidazol-1-yl)propylamino)-3-methyl-7-((naphthalen-3-yl)methyl)-1H-purine-2,6(3H,7H)-dione] registered an inhibition at 10 µM of 50%. Besides, at Eg5 ATPase (read-out: IC50 against Eg5 ATPase), the IC50 (in general, the concentration that gives 50% inhibition) is 2370 ± 150 nM. For the same compound, the Mitotic spindle morphology result in the experiment with Hela cells is given as “monopolar spindle profiles”. Turning to `Cc1ccc(O)c(C(=O)c2cnc3c(c2)c(-c2ccc(F)cc2)c(C#N)c(=O)n3C)c1` [Compound 4, 4-(4-fluorophenyl)-6-(2-hydroxy-5-methylbenzoyl)-1-methyl-2-oxo-1,8-naphthyridine-3-carbonitrile], the inhibition at 10 µM against Eg5 ATPase stood at 30%.
